Reference: article PMC4148173 (Journal of Medicinal Chemistry, 2014)

What was measured:
human D3R [1] = target: T1, human D3R (Homo sapiens, UniProt P35462); experiment: β-Arrestin-2 recruitment assay; format: cell-based; settings: for D3R IC50 ± SEM: inhibition of (+)-PD128907-induced arrestin translocation in U2OS cells expressing D3R; for selectivity ratio (D2R IC50)/(D3R IC50): β-arrestin-2 recruitment antagonist selectivity
human D2LR = human D2LR (Homo sapiens, UniProt P14416); experiment: [125I]IABN displacement binding, HEK cell membranes expressing human D2LR
Chain of human D2LR (P14416 whole entry): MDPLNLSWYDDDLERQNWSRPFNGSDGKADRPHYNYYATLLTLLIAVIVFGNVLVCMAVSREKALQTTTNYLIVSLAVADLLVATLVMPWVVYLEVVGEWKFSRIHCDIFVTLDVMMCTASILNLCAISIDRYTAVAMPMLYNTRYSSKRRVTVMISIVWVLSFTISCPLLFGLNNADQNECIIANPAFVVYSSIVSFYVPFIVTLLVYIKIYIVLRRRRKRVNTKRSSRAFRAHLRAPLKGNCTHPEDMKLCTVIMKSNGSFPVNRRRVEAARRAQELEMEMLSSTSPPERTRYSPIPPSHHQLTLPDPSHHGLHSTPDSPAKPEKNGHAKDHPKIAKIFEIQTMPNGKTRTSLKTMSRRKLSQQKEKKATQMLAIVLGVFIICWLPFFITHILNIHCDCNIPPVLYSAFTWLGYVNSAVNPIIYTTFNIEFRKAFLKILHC

human D3R [2] = target: T1, human D3R; experiment: [125I]IABN displacement binding, HEK cell membranes expressing human D3R
human D2R = human D2R (Homo sapiens, UniProt P14416); experiment: [35S]GTPγS binding assay, CHO-hD2 membranes; format: biochemical; settings: for stimulation of [35S]GTPγS binding, D2R: agonist test; for inhibition of basal [35S]GTPγS binding at D2R: up to 1 μM concentration
Chain of human D2R (P14416 whole entry): as above

human D3R [3] = target: T1, human D3R; experiment: [35S]GTPγS binding assay, CHO-hD3 membranes; format: biochemical; settings: for stimulation of [35S]GTPγS binding, D3R: agonist test; for inhibition of basal [35S]GTPγS binding at D3R: up to 1 μM concentration; for inhibition at 10 µM: read-out: inhibition of D3R basal [35S]GTPγS binding
rats = settings: cited from earlier work
human D2L receptors = human D2L receptors (Homo sapiens, UniProt P14416); experiment: β-Arrestin-2 recruitment assay; format: cell-based; settings: standard agonist
Chain of human D2L receptors (P14416 whole entry): as above

T1 sequence (P35462 whole entry): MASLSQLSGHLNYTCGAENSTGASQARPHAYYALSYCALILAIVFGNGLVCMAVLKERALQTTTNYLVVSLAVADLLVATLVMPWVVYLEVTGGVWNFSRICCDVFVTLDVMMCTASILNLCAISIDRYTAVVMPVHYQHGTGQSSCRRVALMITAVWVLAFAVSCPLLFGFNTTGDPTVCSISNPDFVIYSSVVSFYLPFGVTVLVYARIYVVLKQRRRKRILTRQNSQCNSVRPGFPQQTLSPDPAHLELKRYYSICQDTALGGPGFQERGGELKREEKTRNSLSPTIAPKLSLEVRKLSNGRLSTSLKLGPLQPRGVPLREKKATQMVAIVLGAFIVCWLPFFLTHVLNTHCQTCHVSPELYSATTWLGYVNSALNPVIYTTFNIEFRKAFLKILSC

| Structure (SMILES) | D3R IC50 ± SEM (human D3R [1]) | Kb (human D2R) [nM] | stimulation of [35S]GTPγS binding, D2R (human D2R) | inhibition of basal [35S]GTPγS binding at D2R (human D2R) | Kb (human D3R [3]) [nM] | stimulation of [35S]GTPγS binding, D3R (human D3R [3]) | inhibition of basal [35S]GTPγS binding at D3R (human D3R [3]) | inhibition at 10 µM (human D3R [3]) [%] | also measured |
| --- | --- | --- | --- | --- | --- | --- | --- | --- | --- |
| COc1ccccc1N1CCN(CCCCNC(=O)c2cn3ccccc3n2)CC1 [Compound 7, N-(4-(4-(2-Methoxyphenyl)piperazin-1-yl)butyl)imidazo[1,2-a]pyridine-2-carboxamide] | subnanomolar |  |  |  |  |  |  |  | higher affinity at D2R (human D2LR; compared to compound 6): ~10 fold; enhancement in affinity at the D3R (human D3R [2]; compared to compound 6): ~3 fold |
| O=C(NCCCCN1CCN(c2cccc(Cl)c2Cl)CC1)c1cn2ccccc2n1 [Compound 8, N-(4-(4-(2,3-Dichlorophenyl)piperazin-1-yl)butyl)imidazo[1,2-a]pyridine-2-carboxamide] | subnanomolar | 1.1 ± 0.2 | did not stimulate | less than 30% | 0.0038 ± 0.0013 | did not stimulate | less than 30% |  | selectivity ratio (D2R IC50)/(D3R IC50) (human D3R [1]): > 400 |
| CC(C)(C)c1nc(N2CCN(CCCCNC(=O)c3cn4ccccc4n3)CC2)cc(C(F)(F)F)n1 [Compound 25, N-(4-(4-(2-(tert-Butyl)-6-(trifluoromethyl)pyrimidin-4-yl)piperazin-1-yl)butyl)imidazo[1,2-a]pyridine-2-carboxamide] | subnanomolar | 111 ± 25 | did not stimulate | less than 30% | 1.3 ± 0.4 | did not stimulate | less than 30% | 40 to 60 | selectivity ratio (D2R IC50)/(D3R IC50) (human D3R [1]): > 400; cocaine self-administration, cocaine reward, cue-induced reinstatement of cocaine-seeking, cocaine-induced place preference (rats; rat models): significantly attenuating; effect on food reward or spontaneous locomotor activity (rats; rats, at doses decreasing cocaine effects): no effect; cocaine reward, cocaine seeking, preference for cocaine-associated environments, and cocaine induced locomotor activity (rats; rats): significant decreases; selectivity ratio (D2R Ki/D3R Ki) (human D3R [2]; Table 1, binding selectivity): > 100 |
| CC(C)(C)c1nc(N2CCN(CCCCNC(=O)c3cc4ccccc4[nH]3)CC2)cc(C(F)(F)F)n1 [Compound 26, N-(4-(4-(2-(tert-Butyl)-6-(trifluoromethyl)pyrimidin-4-yl)piperazin-1-yl)butyl)-1H-indole-2-carboxamide] |  |  |  |  |  |  |  |  | lower binding potency at D2R (human D2LR; compared to compound 25): 1.8 fold; lower binding potency at D3R (human D3R [2]; compared to compound 25): 2.6 fold |
| CC(C)(C)c1nc(N2CCN(CCCCNC(=O)c3cn4ccncc4n3)CC2)cc(C(F)(F)F)n1 [Compound 30, N-(4-(4-(2-(tert-Butyl)-6-(trifluoromethyl)pyrimidin-4-yl)piperazin-1-yl)butyl)imidazo[1,2-a]pyrazine-2-carboxamide] |  | 25 ± 6 | did not stimulate | less than 30% | 0.33 ± 0.05 | did not stimulate | less than 30% | 40 to 60 |  |
| CC(C)(C)c1nc(N2CCN(CCCCNC(=O)[C@H]3CC[C@H](c4ccccc4)CC3)CC2)cc(C(F)(F)F)n1 [Compound 39, trans-N-(4-(4-(2-(tert-Butyl)-6-(trifluoromethyl)pyrimidin-4-yl)piperazin-1-yl)butyl)-4-phenylcyclohexanecarboxamide] |  |  | did not stimulate | less than 30% |  | did not stimulate | less than 30% | 40 to 60 |  |
| CCCN1CCO[C@@H]2c3cc(O)ccc3OC[C@H]21 [PD128907, reference compound] |  |  |  |  |  |  |  |  | agonist EC80 dose, D3R (human D3R [1]; β-arrestin recruitment, standard agonist): 8 nM |
| CCCN1C[C@H](CSC)C[C@@H]2c3cccc4[nH]cc(c34)C[C@H]21 [pergolide] |  |  |  |  |  |  |  |  | agonist EC80 dose, D2R (human D2L receptors): 6 nM |
